In the supplement of paper PMC13380429:

How the values were obtained:
[1] = test system: HepG2; assay: drug sensitivity score (DSS) for viability; higher = more toxic; extreme values may be limits of the assay; conditions: 72 h
[2] = test system: Calu-3; assay: as above; conditions: 72 h
[3] = test system: Vero E6; assay: as above; conditions: 72 h
[4] = test system: U2OS; assay: as above; conditions: 72 h
[5] = test system: Caco-2; assay: as above; conditions: 72 h
[6] = test system: HepG2; assay: cell viability relative to DMSO; higher = less toxic; conditions: 72 h
[7] = test system: Calu-3; assay: as above; conditions: 72 h
[8] = test system: Vero E6; assay: as above; conditions: 72 h
[9] = test system: U2OS; assay: as above; conditions: 72 h
[10] = test system: Caco-2; assay: as above; conditions: 72 h
[11] = test system: A549-ACE2 infected with SARS-CoV-2; assay: cell count relative to DMSO; higher = less toxic; conditions: 24 h
[12] = test system: A549-ACE2; assay: drug-induced phospholipidosis relative to tamoxifen; higher = more phospholipidosis
[13] = test system: A549-ACE2 infected with SARS-CoV-2; assay: SARS-CoV-2 infection rate relative to DMSO; higher = more infection; conditions: 24 h
[14] = test system: Calu-3; assay: relative viability EC50 (midpoint between 100% and the lowest measured viability); higher = less toxic; conditions: 72 h
[15] = test system: Vero E6; assay: as above; conditions: 72 h
[16] = test system: U2OS; assay: as above; conditions: 72 h
[17] = test system: Caco-2; assay: as above; conditions: 72 h
[18] = test system: A549-ACE2 infected with SARS-CoV-2; assay: morphology score (similarity to uninfected cells); higher = more like uninfected cells; conditions: 24 h
[19] = test system: HepG2; assay: relative viability EC50 (midpoint between 100% and the lowest measured viability); higher = less toxic; conditions: 72 h
[20] = test system: A549-ACE2; assay: phospholipidosis EC50; higher = less potent phospholipidosis inducer

Cn1cc(-c2cnn3c(N)c(Br)c([C@@H]4CCCNC4)nc23)cn1
Conditions	drug sensitivity score	relative viability EC50 [µM]
[1]	5.7	–
[2]	0	–
[3]	0.9	–
[4]	8.7	–
[5]	0	–
[14]	–	> 10
[15]	–	> 10
[16]	–	1.38
[17]	–	> 10

Conditions	SARS-CoV-2 infection rate, [13] [%]	cell count, [11] [%]	cell viability, [6] [%]	cell viability, [7] [%]	cell viability, [8] [%]	cell viability, [9] [%]	cell viability, [10] [%]	morphology score, [18]
1 nM	–	–	98.8	99.2	102	98.3	92.5	–
10 nM	–	–	101	95.1	102	92	100	–
100 nM	–	–	88.7	97.6	98.2	100	93.4	–
0.3 µM	102	99	–	–	–	–	–	-0.17
1000 nM	–	–	75	93.3	95.7	73.4	97.7	–
3 µM	87	110	–	–	–	–	–	0.41
10000 nM	–	–	52	100	82.1	13.7	86.2	–
10 µM	50	106	–	–	–	–	–	0.67
30 µM	13	79	–	–	–	–	–	0.84

drug-induced phospholipidosis [%], [12]
Conditions	0.3 µM	0.833333 µM	3.33333 µM	6.66667 µM	10 µM	30 µM
24 h	0.22	3.23	6.07	18.9	19.9	52.2
48 h	3.9	4.18	8.86	16.4	18.3	60.6
72 h	6.85	4.55	10.4	11.1	15.4	–

CN(C)C[C@H](O)Cn1c2ccc(Br)cc2c2cc(Br)ccc21 (racemic) [wiskostatin]
Conditions	drug sensitivity score	relative viability EC50 [µM]
[1]	3.5	–
[2]	4	–
[3]	2.7	–
[4]	1.4	–
[5]	3.9	–
[14]	–	3.47
[15]	–	3.2
[17]	–	2.85
[19]	–	3.62

Conditions	SARS-CoV-2 infection rate [%]	cell count [%]	cell viability [%]	morphology score	phospholipidosis EC50 [µM]
[6], 1 nM	–	–	108	–	–
[6], 10 nM	–	–	105	–	–
[6], 100 nM	–	–	107	–	–
[6], 1000 nM	–	–	107	–	–
[6], 10000 nM	–	–	27.2	–	–
[7], 1 nM	–	–	110	–	–
[7], 10 nM	–	–	95.4	–	–
[7], 100 nM	–	–	123	–	–
[7], 1000 nM	–	–	104	–	–
[7], 10000 nM	–	–	20.7	–	–
[8], 1 nM	–	–	110	–	–
[8], 10 nM	–	–	110	–	–
[8], 100 nM	–	–	106	–	–
[8], 1000 nM	–	–	100	–	–
[8], 10000 nM	–	–	48.2	–	–
[9], 1 nM	–	–	103	–	–
[9], 10 nM	–	–	98.8	–	–
[9], 100 nM	–	–	104	–	–
[9], 1000 nM	–	–	99.4	–	–
[9], 10000 nM	–	–	70.1	–	–
[10], 1 nM	–	–	103	–	–
[10], 10 nM	–	–	105	–	–
[10], 100 nM	–	–	100	–	–
[10], 1000 nM	–	–	97.2	–	–
[10], 10000 nM	–	–	35	–	–
[11], 0.1 µM	–	102	–	–	–
[11], 0.3 µM	–	100	–	–	–
[11], 1 µM	–	104	–	–	–
[11], 3 µM	–	119	–	–	–
[13], 0.1 µM	107	–	–	–	–
[13], 0.3 µM	98	–	–	–	–
[13], 1 µM	87	–	–	–	–
[13], 3 µM	46	–	–	–	–
[18], 0.1 µM	–	–	–	0.02	–
[18], 0.3 µM	–	–	–	0.05	–
[18], 1 µM	–	–	–	0.24	–
[18], 3 µM	–	–	–	0.74	–
[20], 24 h	–	–	–	–	2.73
[20], 48 h	–	–	–	–	3.44
[20], 72 h	–	–	–	–	4.3

drug-induced phospholipidosis [%], [12]
Conditions	0.3 µM	0.833333 µM	3.33333 µM	6.66667 µM	10 µM
24 h	5.24	11.9	79.4	108	120
48 h	4.43	7.26	89.6	176	184
72 h	2.67	8.55	92.3	196	231

Cc1ccccc1-n1c(Cn2ncc3c(N)ncnc32)nc2cccc(C)c2c1=O [PIK-293]
Conditions	drug sensitivity score	relative viability EC50 [µM]
[1]	0	–
[2]	0	–
[3]	0	–
[4]	0	–
[5]	0	–
[14]	–	> 10
[15]	–	> 10
[16]	–	> 10
[17]	–	> 10
[19]	–	> 10

Conditions	SARS-CoV-2 infection rate [%]	cell count [%]	cell viability [%]	morphology score	phospholipidosis EC50 [µM]
[6], 1 nM	–	–	95.5	–	–
[6], 10 nM	–	–	90	–	–
[6], 100 nM	–	–	104	–	–
[6], 1000 nM	–	–	95	–	–
[6], 10000 nM	–	–	99.4	–	–
[7], 1 nM	–	–	96.8	–	–
[7], 10 nM	–	–	90.5	–	–
[7], 100 nM	–	–	93	–	–
[7], 1000 nM	–	–	111	–	–
[7], 10000 nM	–	–	102	–	–
[8], 1 nM	–	–	102	–	–
[8], 10 nM	–	–	99	–	–
[8], 100 nM	–	–	105	–	–
[8], 1000 nM	–	–	101	–	–
[8], 10000 nM	–	–	104	–	–
[9], 1 nM	–	–	91.4	–	–
[9], 10 nM	–	–	100	–	–
[9], 100 nM	–	–	93.6	–	–
[9], 1000 nM	–	–	100	–	–
[9], 10000 nM	–	–	95.5	–	–
[10], 1 nM	–	–	101	–	–
[10], 10 nM	–	–	94.2	–	–
[10], 100 nM	–	–	91.1	–	–
[10], 1000 nM	–	–	95.8	–	–
[10], 10000 nM	–	–	89.9	–	–
[11], 0.3 µM	–	84	–	–	–
[11], 3 µM	–	98	–	–	–
[11], 10 µM	–	65	–	–	–
[13], 0.3 µM	89	–	–	–	–
[13], 3 µM	27	–	–	–	–
[13], 10 µM	70	–	–	–	–
[18], 0.3 µM	–	–	–	0.21	–
[18], 3 µM	–	–	–	0.76	–
[18], 10 µM	–	–	–	0.02	–
[20], 24 h	–	–	–	–	2.86
[20], 48 h	–	–	–	–	3.88

drug-induced phospholipidosis [%], [12]
Conditions	0.3 µM	0.833333 µM	3.33333 µM	6.66667 µM	10 µM
24 h	2.65	16.4	52.5	87.2	81
48 h	5.81	14	48.3	99.5	–
72 h	3.73	6.21	–	–	–

CCc1cc2cc(OC)c(OC)cc2c(Cc2ccccc2)n1 [moxaverine]
Conditions	drug sensitivity score	relative viability EC50 [µM]
[1]	0	–
[2]	0	–
[3]	0	–
[4]	0	–
[5]	0	–
[14]	–	> 10
[15]	–	> 10
[16]	–	> 10
[17]	–	> 10
[19]	–	> 10

Conditions	SARS-CoV-2 infection rate, [13] [%]	cell count, [11] [%]	cell viability, [6] [%]	cell viability, [7] [%]	cell viability, [8] [%]	cell viability, [9] [%]	cell viability, [10] [%]	morphology score, [18]
1 nM	–	–	101	95.7	96.5	101	89	–
10 nM	–	–	104	92.5	95.4	95.1	85.6	–
100 nM	–	–	98.5	95.9	92.2	99.6	104	–
0.3 µM	104	99	–	–	–	–	–	-0.15
1000 nM	–	–	103	96	95	95.5	90.9	–
3 µM	95	103	–	–	–	–	–	0.3
10000 nM	–	–	106	100	107	96.8	105	–
10 µM	71	106	–	–	–	–	–	0.51
30 µM	52	109	–	–	–	–	–	0.66

drug-induced phospholipidosis [%], [12]
Conditions	0.3 µM	0.833333 µM	3.33333 µM	6.66667 µM	10 µM	30 µM
24 h	1.12	1.68	0.22	1.38	2.55	6.92
48 h	3.81	1.7	2.59	3.75	3.82	13.6
72 h	4.52	0.631	3.05	3.57	2.15	15.7
